Data on four compounds can be found in patent US20150259371A1, “METHODS AND COMPOUNDS FOR INHIBITING GLYCOSYLTRANSFERASES” (SIMON FRASER UNIVERSITY, priority 2010, published 2015).

Data set [1] relates to EMEG32 heterozygous mouse embryonic fibroblast cells. Briefly: Cell proliferation growth curves over 5 days and western blot, EMEG32 heterozygous fibroblasts. The following applies: EMEG32 heterozygotes, 50 μM, 5 days. The class given is cell-based. Here is the method: (A) Cell proliferation curves over the course of 5 days for CHO cells following no (circles), 50 μM Ac-GlcNAc (squares) or 50 μM Ac-5SGlcNAc (triangles) treatment. The error bars indicate the deviation from the mean for triplicate measurements. […] Upper panel, probed with anti-O-GlcNAc antibody (CTD110.6); lower panel, probed with anti-actin antibody. (B) Cell proliferation curves over the course of 5 days for EMEG heterozygous mouse embryonic fibroblast cells following no (circles), 50 μM Ac-GlcNAc (squares) or 50 μM Ac-5SGlcNAc (triangles) treatment. The error bars indicate the deviation from the mean for triplicate measurements. […] Upper panel, probed with anti-O-GlcNAc antibody (CTD110.6); lower panel, probed with anti-actin antibody. (C) Western blots of CHO cell lysates following no (C) or Ac-5SGlcNAc administration at 50 μM for 4 days. Probed with (from top to bottom) anti-Spl antibody, anti O-GlcNAc (CTD110.6) antibody and anti-actin antibody. Full blot of the anti-Sp 1 is shown in panel (d). (D) Western blots of CHO cell lysates following no (C) or Ac-5SGlcNAc administration at 50 μM for 4 days. The full blot probed with anti-Spl antibody is shown. (E) Western blots of COS-7 cell lysates following no (C) or 50 μM Ac-5SGlcNAc treatment for 24 h. Following treatment, the media was replaced with no inhibitor, and cells were harvested at the time points indicated (between 0 and 24 h). Upper panel, probed with anti-O-GlcNAc antibody (CTD110.6); lower panel, probed with anti-actin antibody.
Cellular responses to Ac-5SGlcNAc (9) treatment and consequent decreases in O-GlcNAc levels were evaluated. […] We quantitatively evaluated cell proliferation and established growth curves over the course of 5 days in both CHO and EMEG32 heterozygous mouse embryonic fibroblast cells treated with 50 μM Ac-5SGlcNAc (9), 50 μM Ac-GlcNAc (G), or vehicle (FIGS. 5A-B).

Data set [2] relates to O-GlcNAc levels in COS-7 cells. Briefly: Western blot of O-GlcNAc levels (CTD110.6) in treated COS-7 cells. The class given is cell-based, African green monkey. The settings on record: 50 μM, 24 h. Here is the method:
Cell culture: Cells were grown in an incubator at 37° C. and 5% CO2 atmosphere. Media and serum were purchased from Invitrogen. COS-7 cells were cultured in Dulbecco's modified Eagle's medium (DMEM) with 5% fetal bovine serum (FBS), and were typically 80-100% confluent prior to experimentation. HepG2, SK-N-SH, and EMEG32^−/− cells were cultured in Dulbecco's modified Eagle's medium (DMEM) with 5% fetal bovine serum (FBS), CHO cells in DMEMF-12 with 5% FBS and PC12 cells in DMEM with 5% FBS and 5% horse serum. Prior to experimentation, PC12 cells were plated at a density of 3-4×10^5 cells10 cm plate, which had been pre-treated with 5 μgcm^2 rat tail collagen (BD Biosciences). Cells were differentiated in DMEM containing 1% horse serum, in the presence of 2.5S mouse nerve growth factor (Chemicon) at a final concentration of 25 ng mL^−1, for 4-5 days prior to treatment. Other cell lines were 80-100% confluent prior to treatment. Following treatment with (Ac-)5SGlcNAc, using various conditions, cells were washed gently with PBS, lysed in SDS loading buffer and boiled for 10 minutes. Mouse hybridoma cells (obtained from the Developmental Studies Hybridoma Bank; antibody E7 for (:1-tubulin) were cultured in RPMI40 with 10% FBS. Prior to treatment with Ac-5SGlcNAc, hybridoma cells were cultured for 2 days in RPMI40 with 5% FBS, and during treatment in RPMI40 with no serum. Cells were collected, centrifuged (800 x g, 5 min) and the supernatant removed. Cells were washed with PBS, centrifuged, the pellet resuspended in SDS loading buffer and boiled. The supernatant after centrifugation, which contained the IgG antibody produced by the cells, was used for immunoprecipitation (see below for details).
Westernlectin blots: Samples were run on 10% SDS polyacrylamide gels and transferred onto nitrocellulose membranes (Biorad). Membranes were blocked for 1 h in PBS containing 0.1% Tween-20 (PBS-T) containing 1% (unless otherwise stated) bovine serum albumin (BSA), and probed with the appropriate primary antibody or lectin in 1% BSA in PBS-T overnight at 4° C. Blots were washed for 1 hr with PBS-T, and blocked for a further 30 min with 1% BSA in PBS-T at room temperature. They were then probed with the appropriate horseradish peroxidise (HRP)-conjugated secondary antibodyprobe in 1% BSA in PBS-T at room temperature for 1 h, followed by washing in PBS-T for 1 h. Blots were developed with SuperSignal West Pico Chemiluminescent Substrate (Pierce) and exposed to CL-XPosure film (Pierce). Densitometry was performed using ImageQuant 5.2 (Molecular Dynamics), and fits to the data were made using GRAFIT^41.
Antibodieslectins: O-GlcNAc levels were assessed primarily using CTD110.6 (Covance), but RL2 (Abcam) and HGAC85 (Abcam) were also tested. Actin was probed using JLA20 (Developmental Studies Hybridoma Bank). OGA levels were assessed using a polyclonal anti-OGA antibody which was a kind gift from Dr. Gerald Hart and OGT levels using H-300 (Santa Cruz Biotechnology). nup62 was probed using mAb 414 (Covance). Secondary antibodies employed (HRP-conjugated goat anti-mouse IgM, goat anti-mouse IgG, goat anti-chicken IgY and goat anti-rabbit IgG) were obtained from Santa Cruz Biotechnology. Biotinylated-ConA, PHA-L, SNA and MAA were purchased from EY Laboratories, and biotinylated-GNA from Vector Laboratories. HRP-conjugated streptavidin (Pierce) was used as a probe for the biotinylated lectins.
Analogues (9, 10, 17-41) were tested in COS-7 cells, dosed at a final concentration of 50 μM in DMSO for 24 h. Following treatment, cells were washed with PBS, harvested into SDS-PAGE loading buffer and analyzed by western blot using standard procedures; blots were probed with the anti-O-GlcNAc antibody (CTD 110.6).

Data set [3] concerns O-GlcNAc levels in mice tissues. The experiment in a line: O-GlcNAc levels in mouse tissues after intraperitoneal dosing. In kind it is in vivo. The settings on record: 300 mg/kg intraperitoneally, 16 hours. As to the method: Ac-5SGlcNAc 9 and the deprotected analogue with the hexyl substituent at the C2 position 28 have been analyzed for effectiveness at decreasing O-GlcNAc levels in mice. Pilot studies were conducted with mice dosed in triplicate with either compound or vehicle alone. Compounds were dosed at 300 mg/kg intraperitoneally using 75% DMSO as vehicle for delivery of 9 and phosphate-buffered saline (PBS) for delivery of 28. Mice were euthanized using a CO2 chamber after 16 hours exposure to either compound, and tissues (liver, lung, heart, kidney, spleen, pancreas, brain, blood, fat and muscle) harvested and flash frozen in liquid nitrogen. Frozen tissues were ground using a pestle and mortar, and resuspended in cell lysis buffer (50 mM NaH2PO4, 150 mM NaCl, 0.1% SDS, 1% NP-40, 0.25% sodium deoxycholate, 1 mM EDTA, 30 mM sodium fluoride, 30 mM β-glycerophosphate, 5 mM sodium pyrophosphate, 1 mM Thiamet-G, protease inhibitor cocktail (Roche)) at a concentration of 100 mg tissue1 mL buffer prior to homogenization. Homogenates were centrifuged at 13,000 rpm for 20 min, the supernatant removed, added to 2×SDS-PAGE loading buffer and boiled for […]. SDS-PAGE and western blots were performed using standard procedures. Blots were probed using anti-O-GlcNAc antibody (CTD110.6, Santa Cruz Biotechnology) and anti-actin antibody for a loading control.

Data set [4] has as its system incorporation of azido sugar onto proteins in COS-7 cells. The experiment in a line: Metabolic feeding and Staudinger ligation with biotin phosphine, streptavidin-HRP blot. The following applies: 50 μM, 24 h. The class given is cell-based, African green monkey. As to the method: (A) Structures of the molecules used or generated during the chemoselective ligation study (X═O or S as indicated, R═H or Ac as indicated). (B) Western blots of COS-7 cell lysates administered specified agents at 50 μM for 24 h; vehicle only (C), Ac-GlcNAz or Ac-5SGlcNAz (41). Cells were harvested and then underwent the Staudinger ligation with biotin phosphine. Blots are probed with (from top to bottom) streptavidin-HRP, anti O-GlcNAc (CTD110.6) antibody and anti-actin antibody. (C) Western blot of immunoprecipitated nup62 from cell lysates following vehicle (C), 50 μM Ac-GlcNAz or Ac-5SGlcNAz (41) treatment for 24 h. Following immunoprecipitation, nup62 was incubated with buffer (−) or with BtGH84 (+) for 2 h to remove O-GlcNAc, and then underwent the Staudinger ligation with biotin phosphine. Blots are probed with streptavidin-HRP. […]
To probe the possibility that 5SGlcNAc is being incorporated onto proteins, we used a metabolic feeding and chemoselective ligation strategy using 2-azidoacetamido-2-deoxy-D-glucopyranose (GlcNAz), which can be assimilated by the HBP to form uridine diphospho-N-azidoacetylglucosamine (UDP-GlcNAz) and then be installed onto proteins as O-GlcNAz^9. […] Accordingly, we evaluated whether 2-azidoacetamido-2-deoxy-5-thio-D-glucopyranose (5SGlcNAz) is incorporated onto proteins to determine whether 5SGlcNAc might be transferred onto proteins in cells. […]

Consider `CC(=O)N[C@H]1[C@H](OC(C)=O)O[C@H](COC(C)=O)[C@@H](OC(C)=O)[C@@H]1OC(C)=O` [Ac-GlcNAc, reference compound], for which the growth rate entry in data set [1] was “indistinguishable but were both lower than vehicle treated cells”.

For `CCCCCC(=O)NC1C(O)SC(CO)C(O)C1O` [Compound 28, N-Hexonoyl-a-D-5-thio-glucosamine], in data set [2], the “effect on O-GlcNAc levels at single dose” value was “decreased O-GlcNAc levels in cells” and the “extent of decrease of O-GlcNAc levels relative to parent compound 9” value was “comparable extent to the parent compound”. In addition, the “O-GlcNAc levels in tissues” value in data set [3] is “effective at decreasing O-GlcNAc levels during the 16 hour dosing period in the liver, lung, heart, kidney, spleen, pancreas, fat and muscle”.

For the compound “2-azidoacetamido-2-deoxy-5-thio-D-glucopyranose [Compound 5SGlcNAz]”, the “streptavidin signal after Staudinger ligation (accumulation of azido sugar on proteins)” value in data set [4] is recorded as “does not accumulate on proteins to any measurable level”.

Turning to `CC(=O)OC[C@H]1O[C@H](OC(C)=O)[C@H](NC(=O)CN=[N+]=[N-])[C@@H](OC(C)=O)[C@@H]1OC(C)=O` [Ac-GlcNAz, 1,3,4,6-tetra-O-acetyl-2-azidoacetamido-2-deoxy-ot-D-glucopyranose, reference compound], in data set [2], the “effect on O-GlcNAc levels at single dose” value is listed as “only 5SGlcNAz decreased O-GlcNAc levels”. Moreover, in data set [4], the “streptavidin signal after Staudinger ligation (accumulation of azido sugar on proteins)” value was “Only proteins from cells treated with Ac-GlcNAz revealed any signal”.
